Reference: US20130244875A1, “METHODS AND COMPOSITIONS FOR IMPROVING PLANT HEALTH” (priority 2006, published 2013)
Where “and” joins values, the source holds several entries; their conditions need not be identical. Identical values can stand only once.

Experiments:
[1] = system: PR-2, i.e., β-1,3-glucanase; assay: Induction of PR2 (northern blot) in DMO soybean sprayed with dicamba or DCSA; assay type: in vivo; settings: two transgenic soybean lines; 0.25, 0.5 and 1 lb/Acre; 24 hrs after treatment; no induction in untreated or water only
Experimental: A 14 hour minimum photoperiod was provided with supplemental light at about 600 μE (micro-Einsteins) as needed. Trials were established in a randomized block design randomized by rate with 4 to 6 replications of each treatment.
All herbicide applications were made with the track sprayer using a Teejet® 9501E flat fan nozzle (Spraying Systems Co, Wheaton, Ill.) with air pressure set at a minimum of 24 psi (pounds per square inch), or 165 kpa (kilopascals)). The spray nozzle was kept at a height of about 16 inches above the top of plant material for spraying. The spray volume was 10 gallons per acre or 93 liters per hectare. Applications were made when plants had reached V-3 stage.
Events carrying a DMO transgene in their genome were grown and treated with dicamba (Clarity®, BASF) at 1 lb/Acre at Post-V3 stage. Leaf samples were harvested after 0, 3, 8, 24, 48, 72 hrs after treatment (HAT) and frozen for further analysis. In another experiment, DMO-containing plants were sprayed with either dicamba or DCSA at 0.25, 0.5 and 1 lb/Acre rate and tissue samples were collected 24 HAT. RNA was extracted and analyzed by northern blot analysis using PR-2, i.e., β-1,3-glucanase as a probe. PR-2 is a pathogenesis-related protein known to degrade […] and thus provide protection against fungal pathogens (U.S. Pat. No. 5,670,706 and Uknes et al., 1992).

[2] = system: Xanthomonas campestris pv. malvacearum; assay: Bacterial blight inoculation of cotton plants after DCSA spray; assay type: in vivo; settings: two-week old cotton; DCSA spray 24 hours before tooth pick inoculation; unsprayed plants developed necrotic spots
Experimental: In this example, two-week old cotton plants were sprayed with DCSA while control plants received spray application of water only. The plants were inoculated with bacterial blight pathogen (Xanthomonas campestris pv. malvacearum) about 24 hours after the DCSA spray application using a tooth pick inoculation method. As shown in the FIG. 4, the cotton plants inoculated with the bacterial pathogen but not sprayed with DCSA developed necrotic spots, typical symptoms of bacterial blight. […] The results of this experiment indicate that DCSA application reduced bacterial infection on cotton plants when inoculated with bacterial pathogen 24 hours after the DCSA spray.

[3] = system: Meloidogyne incognita; assay: Control of cotton root knot nematode (RKN) by DCSA; assay type: in vivo
Experimental: DCSA was unexpectedly found to control RKN gall formation, improve plant height and reduce number of eggs produced by the nematode in cotton plants (ST474) (Table 5). Ten to fourteen days old cotton plants were treated with DCSA at the rate of 1 lb/A, 24 hrs before inoculating them with RKN eggs. […] Plant height, gall rating, and egg counts were measured 45 days after inoculation. The gall rating scale was 0-5 with 0=no visible galling and 5=heavy galling.

[4] = system: Verticillium (isolate DPL); assay: Verticillium wilt protection in cotton, isolate DPL; assay type: in vivo, Verticillium dahliae; settings: cotton ST6611, DCSA 1 lb/A, glyphosate 0.75 lb/A, 24 hours before inoculation
From the text: DCSA was unexpectedly found to provide protection to cotton plants against Verticillium dahliae, causal agent of cotton wilt disease (Table 6). Cotton plants of the variety ST6611, BOLLGARD 2, ROUNDUP READY FLEX, were inoculated with a moderate isolate (DPL) or a virulent isolate (King) of Verticillium by a seedling dipping method. Seedlings at the first true leaf stage were taken out from the pots, one inch of roots were cut off, seedlings were dipped in a spore slurry for one minute, and then transplanted back in the pots. These strains were isolated and provided by Dr. Terry Wheeler (Texas A&M University, TX USA). DCSA was applied at the rate of 1 lb/A and glyphosate (ROUNDUP WEATHERMAX, Monsanto Company, St. Louis, Mo.) at the rate of 0.75 lb/A 24 hours before inoculation. Protection against Verticillium was measured on a disease severity scale of 1-9:1 being healthy and 9 being dead because of disease, and also was measured as the number of plants that survived out of 10 inoculated plants.

[5] = system: wheat seed (spring wheat variety); assay: Wheat seed germination in DCSA solution; assay type: in vivo; set-up: key: 1—low; 2—moderate; 3—high; 3+—exceptionally high; settings: 22° C., 2DAT, water 1
Experimental: Wheat seed (spring wheat variety) was germinated in a solution of 0.1, 1, 10, 100, or 1000 μM DCSA or water at 22° C. and rated 2 DAT for germination using the same rating scale as used for soybean.

[6] = system: soybean plants; assay: AMPA induced yellow flash in soybean; assay type: in vivo; settings: 8DAT, scale 1-3, surfactant alone 2.7
Experimental: Yellow flash is a symptom sometimes observed in glyphosate tolerant soybeans treated with glyphosate due to the formation of AMPA (aminomethyl phosphonic acid). A study was conducted to determine if DCSA treatment would protect soybean plants from AMPA induced yellow flash symptoms. Soybean plants were grown to V1-2 growth stage and divided into 3 treatment groups, 3 pots of plants per treatment. The treatments were 0.5 lb/A DCSA, 1.0 lb/A DCSA or surfactant alone. One day after treatment, all of the plants were sprayed with 1 lb/A of AMPA (Sigma Aldrich, St. Louis, Mo.) in surfactant. […] In an aspect of the present invention, a tolerance to yellow flash is provided due to improved plant health by DCSA applied to a plant in need of yellow flash tolerance or DCSA produced in vivo by the action of DMO on dicamba in transgenic plants comprising a DMO transgene.

[7] = system: soybean plants; assay: Copper injury on soybeans; assay type: in vivo; settings: DCSA 0.5 lb/A as tank mix or pretreatment 1 hr or 24 hr before 1000 ppm copper; reduced from 45%
From the text: Plants are sensitive to heavy metal toxicity. Heavy metals are present in the environment or sometimes applied to plants for pest control. Symptoms of plant injury following treatment with a heavy metal compound, for example, a compound containing copper, are necrotic leaf spotting and flecking with more severe injury resulting in larger reddish brown spots, […] necrosis and/or necrotic puckered leaves.

[8] = individual cotton (ST474) plants 1-8, DCSA 1 lb/A 24 hrs before RKN eggs, 45 days after inoculation

Structure (SMILES): O=C(O)c1c(Cl)ccc(Cl)c1O [DCSA, 3,6-dichloro salicylic acid]
- induction of PR2 at various rates [1]: induction of PR2
- bacterial blight symptoms [2]: only localized lesions (HR response) and no increase in bacterial blight symptoms
- Egg Count/pot [3, 8]: 8,160 and 9,120 and 5,200 and 3,720 and 3,360 and 3,040 and 1,800 and 2,200
- Plant Height (cm) [3, 8]: 25.4 cm (3×) and 22.2 cm and 17.8 cm and 14.0 cm and 15.9 cm and 12.7 cm
- RKN Gall Rating (0-5) ([3]; individual plants 1-8, 0=no visible galling, 5=heavy galling, 45 days after inoculation): 0 (4×) and 2 and 1 (3×)
- RKN Gall Rating (0-5), Mean ([3]; mean of 8 plants, RKN alone 2.6): 0.6
- Plant Height (cm), Mean ([3]; mean of 8 plants, RKN alone 16.9): 19.8 cm
- Severity rating (1-9) ([4]; 1 healthy, 9 dead, inoculated check 5): 1
- Plant survival rating (out of 10) ([4]; inoculated check 8): 10
- germination rating ([5]; 0.1 μM DCSA): 1
- germination rating ([5]; 1 μM DCSA): 1
- germination rating ([5]; 10 μM DCSA): 3
- germination rating ([5]; 100 μM DCSA): 2
- germination rating ([5]; 1000 μM DCSA): 3
- Average symptoms ([6]; 0.5 lb/A DCSA one day before 1 lb/A AMPA): 3
- Average symptoms ([6]; 1.0 lb/A DCSA one day before 1 lb/A AMPA): 1.7
- Soybean injury levels [7]: 24-33%
